Patent publication US20120315308A1, “METHODS AND DEVICES FOR CONTROLLING PARTICLE SIZE AND PARTICLE SIZE DISTRIBUTION” (priority 2010, published 2012)
Where “and” joins values, the source holds several entries; their conditions need not be identical. Equal entries are not always repeated. Where two headings read alike, the source gives them in different places.

Protocol: A submicron dispersion of naproxen was prepared using the enhanced initial dispersion followed by a secondary high shear mixing process. The following equipment was used for the experiment:
(1) An Ivek Digispense 3009 controller with an AP motor/base assembly and a AA pump body.
(2) A Micronoson Ultrasonic Cell Distruptor, XL 100 watt ultrasonic controller and a Misonix 22.5 kHz ultrasonic transducer horn with a coaxillal center feed.
(3) Microfluidizer—Microfluidics M-110EH-25 high shear processor with a 75 micron F-20Y interaction chamber.
(4) Horiba LA-950 Laser Diffraction Particle Size Analyzer.
The Ivek Digispense pump speed was calibrated to 20 mL/min.
The end of the ultrasonic horn, also referred to as an ultrasonic probe, was suspended in air, the power to the Ivek pump and the ultrasonic probe was turned on. Ultrasonic power was set to 20 watts. The height of the ultrasonic probe dispense tubing was adjusted until the feed liquid was dispersed as small droplets, thereby creating a fine spray. The tubing was fixed at this height, as above and below this height, dispensed liquid simply drips from the probe.
The tip of the ultrasonic transducer horn was secured just above the check valve in the feed reservoir. The antisolvent was a 0.5% Triton X-100 in dionized water, and 190 mL of the antisolvent was added to the inlet reservoir of the Microfluidizer. Naproxen has a tendency to agglomerate, therefore, nonionic Triton X-100 surfactant was used as the antisolvent.
DMSO was used as the solvent and it contained 13.75 g naproxen per 100 mL solvent. An ice bath was used to chill the sample to avoid over heating with multiple passes.
The microfluidizer pressure was set to 24,000 psi, using the antisolvent. […] The outlet from the cooling coil of the microfluidizer was placed in the inlet reservoir to allow for recycling of the process. The Ivek Pump was set for 20 mL/min.
With the Microfluidizer running at 24,000 psi in a recirculation mode the Pump and Ulrasonic Probe were simutaneously turned on for 30 seconds and then immediately turned off. A single pass sample was collected for particle size analyzsis. This sample contained 1.375 grams of naproxen in the mixed solution of DMSO & 0.5% triton X-100 DI water. The Microfluidizer continued to run for an additional 150 seconds for a total of 180 seconds. After six passes, a sample was collected to evaulate particle size.
The graph presented in FIG. 3 is a plot of naproxen particle diameter (x axis) vs. frequency of occurrence of the particle diameter (y axis). Table 6 provides the mean and median particle size for each run.

[1] = no ultrasonic step, 1 pass through Microfluidizer at 24,000 psi
[2] = no ultrasonic step, 6 passes through Microfluidizer at 24,000 psi
[3] = with ultrasonic initial mixing, 1 pass through Microfluidizer at 24,000 psi, DMSO / 0.5% Triton X-100 in water
[4] = with ultrasonic initial mixing, 6 passes through Microfluidizer at 24,000 psi, DMSO / 0.5% Triton X-100 in water

Mean Particle Size [1]: 4.65 μm and 8.199 μm
Median particle size [1]: 4.784 μm and 8.324 μm
Mean Particle Size [2]: 2.4845 μm and 2.47 μm
Median particle size [2]: 1.214 μm and 1.696 μm
Mean Particle Size [3]: 1.021 μm and 1.257 μm
Median particle size [3]: 0.3267 μm and 0.6459 μm
Mean Particle Size [4]: 0.6051 μm and 0.606 μm
Median particle size [4]: 0.5067 μm and 0.4602 μm
median naproxen particle size (diameter) (with ultrasonic initial mixing, regardless of how many passes were employed): less than 1 μm
Compound: COc1ccc2cc([C@H](C)C(=O)O)ccc2c1 [naproxen]
